# Measured values as given in patent US8192962B2, “Processes for detecting toxic substances” (Daikin Industries, Ltd., priority 2001, dated 2012).
# Tested on: Stress protein genes
# Experiment: DNA chip mRNA expression in yeast, stress protein genes (Table 6)
# Format: cell-based, Saccharomyces cerevisiae S288C
# Experimental: Yeast (Saccharomyces cerevisiae S288C (α SUC2mal mel gap2 CUP1)) were incubated at 25° C. on YPD medium (yeast extract 1%, polypepton 2%, glucose 2%). One of toxic chemical substances was added to the cells at logarithmic growth phase, and the cells were further incubated for two hours. Cells were cultured without any chemical substance in the same condition, and were used as control. Concentrations of the chemical substances were defined to inhibit the growth of the yeast but not lead to death.
# After completion of the incubation, the culture was centrifuged to collect the cells. To the cells, sodium acetate buffer (50 mM sodium acetate, 10 mM EDTA, 1% SDS) was added, and the mixture was shaken at 65° C. for five minutes, followed by returning to room temperature, and obtaining the supernatant, of which the procedures were repeated two times. To the supernatant, ½ amount of a solution of phenol/chloroform was added, and the mixture was centrifuged to give a supernatant, which was added with an equal amount of chloroform, and the mixture was centrifuged to give a supernatant. To the supernatant, an equal amount of isopropanol containing 0.3 M sodium acetate was added, and the mixture was allowed to stand at room temperature for 30 minutes, after which the mixture was centrifuged to give a sediment of the whole RNAs. Seventy % ethanol was added to the sediment, and the mixture was again centrifuged to give a sediment, which was then dried and dissolved in water. mRNA was isolated from the whole RNAs as followings. In view of the fact that a poly A chain is attached to the 3′ terminus of mRNA, a polynucleotide having a poly T structure which was immobilized on the surface of latex beads was used to trap the mRNA, and then the mRNA was washed and eluted with spine column (Oligotex-dT30<Super>mRNA Purification Kit, Takara). Reverse transcription of the mRNA was conducted with a reverse transcriptase (Super Script II Reverse Transcriptase; catalogue No. 18064-014, GibcoBRL) using fluorescence-labeled nucleotides to give cDNAs that were introduced with Cy3-dUTP or Cy5-dUTP during the reverse transcription.
# The labeled cDNAs were dissolved in TE buffer (10mM Tris-HCl/1 mM EDTA, pH8.0), and the solution was dropped on the DNA chip containing the whole genes of yeast (DNA Chip Research Inc. Japan) so that the cDNAs were hybridized on the DNA chip at 65° C. for over 12 hours. The fluoresces intensity of the DNA chip was read with a scanner, and the ratio relative to the fluorescence intensity resulting from the absence of chemical substance was estimated as the following, which is shown in Tables 1 to 9: […]
compound,measurement,setting,value
"CCCCCCCCCCCCc1ccc(S(=O)(=O)[O-])cc1.[Na+] [(17), sodium dodecylbenzosulfonate]",The level of expressed mRNA in the presence of chemical substance/The level of expressed mRNA in the absence of chemical substance,yeast gene YIL033C,1.0
same,The level of expressed mRNA in the presence of chemical substance/The level of expressed mRNA in the absence of chemical substance,yeast gene YIR037W,1.7
same,The level of expressed mRNA in the presence of chemical substance/The level of expressed mRNA in the absence of chemical substance,yeast gene YIR038C,2.8
same,The level of expressed mRNA in the presence of chemical substance/The level of expressed mRNA in the absence of chemical substance,yeast gene YJL128C,1.0
same,The level of expressed mRNA in the presence of chemical substance/The level of expressed mRNA in the absence of chemical substance,yeast gene YJL158C,1.4
same,The level of expressed mRNA in the presence of chemical substance/The level of expressed mRNA in the absence of chemical substance,yeast gene YJL159W,1.4
same,The level of expressed mRNA in the presence of chemical substance/The level of expressed mRNA in the absence of chemical substance,yeast gene YJL165C,1.3
same,The level of expressed mRNA in the presence of chemical substance/The level of expressed mRNA in the absence of chemical substance,yeast gene YJR045C,0.7
same,The level of expressed mRNA in the presence of chemical substance/The level of expressed mRNA in the absence of chemical substance,yeast gene YJR090C,1.1
same,The level of expressed mRNA in the presence of chemical substance/The level of expressed mRNA in the absence of chemical substance,yeast gene YKL161C,1.4
same,The level of expressed mRNA in the presence of chemical substance/The level of expressed mRNA in the absence of chemical substance,yeast gene YKL163W,0.8
same,The level of expressed mRNA in the presence of chemical substance/The level of expressed mRNA in the absence of chemical substance,yeast gene YKL164C,0.8
same,The level of expressed mRNA in the presence of chemical substance/The level of expressed mRNA in the absence of chemical substance,yeast gene YKL210W,0.7
same,The level of expressed mRNA in the presence of chemical substance/The level of expressed mRNA in the absence of chemical substance,yeast gene YKR053C,2.8
same,The level of expressed mRNA in the presence of chemical substance/The level of expressed mRNA in the absence of chemical substance,yeast gene YLL024C,0.5
same,The level of expressed mRNA in the presence of chemical substance/The level of expressed mRNA in the absence of chemical substance,yeast gene YLL026W,1.7
same,The level of expressed mRNA in the presence of chemical substance/The level of expressed mRNA in the absence of chemical substance,yeast gene YLL039C,1.6
same,The level of expressed mRNA in the presence of chemical substance/The level of expressed mRNA in the absence of chemical substance,yeast gene YLL060C,1.9
same,The level of expressed mRNA in the presence of chemical substance/The level of expressed mRNA in the absence of chemical substance,yeast gene YLR006C,1.6
same,The level of expressed mRNA in the presence of chemical substance/The level of expressed mRNA in the absence of chemical substance,yeast gene YLR109W,1.1
same,The level of expressed mRNA in the presence of chemical substance/The level of expressed mRNA in the absence of chemical substance,yeast gene YLR259C,0.8
same,The level of expressed mRNA in the presence of chemical substance/The level of expressed mRNA in the absence of chemical substance,yeast gene YML007W,1.0
same,The level of expressed mRNA in the presence of chemical substance/The level of expressed mRNA in the absence of chemical substance,yeast gene YML070W,1.2
same,The level of expressed mRNA in the presence of chemical substance/The level of expressed mRNA in the absence of chemical substance,yeast gene YMR021C,3.3
same,The level of expressed mRNA in the presence of chemical substance/The level of expressed mRNA in the absence of chemical substance,yeast gene YMR173W,1.9
same,The level of expressed mRNA in the presence of chemical substance/The level of expressed mRNA in the absence of chemical substance,yeast gene YMR186W,0.7
same,The level of expressed mRNA in the presence of chemical substance/The level of expressed mRNA in the absence of chemical substance,yeast gene YNL064C,0.7
same,The level of expressed mRNA in the presence of chemical substance/The level of expressed mRNA in the absence of chemical substance,yeast gene YNL160W,1.0
same,The level of expressed mRNA in the presence of chemical substance/The level of expressed mRNA in the absence of chemical substance,yeast gene YNL241C,1.0
same,The level of expressed mRNA in the presence of chemical substance/The level of expressed mRNA in the absence of chemical substance,yeast gene YNR076W,1.5
same,The level of expressed mRNA in the presence of chemical substance/The level of expressed mRNA in the absence of chemical substance,yeast gene YOL064C,1.2
same,The level of expressed mRNA in the presence of chemical substance/The level of expressed mRNA in the absence of chemical substance,yeast gene YOL161C,1.1
same,The level of expressed mRNA in the presence of chemical substance/The level of expressed mRNA in the absence of chemical substance,yeast gene YOR008C,0.8
same,The level of expressed mRNA in the presence of chemical substance/The level of expressed mRNA in the absence of chemical substance,yeast gene YOR009W,0.9
same,The level of expressed mRNA in the presence of chemical substance/The level of expressed mRNA in the absence of chemical substance,yeast gene YOR010C,1.4
same,The level of expressed mRNA in the presence of chemical substance/The level of expressed mRNA in the absence of chemical substance,yeast gene YOR027W,0.9
same,The level of expressed mRNA in the presence of chemical substance/The level of expressed mRNA in the absence of chemical substance,yeast gene YOR208W,1.6
same,The level of expressed mRNA in the presence of chemical substance/The level of expressed mRNA in the absence of chemical substance,yeast gene YPL059W,1.8
same,The level of expressed mRNA in the presence of chemical substance/The level of expressed mRNA in the absence of chemical substance,yeast gene YPL106C,0.5
same,The level of expressed mRNA in the presence of chemical substance/The level of expressed mRNA in the absence of chemical substance,yeast gene YPL140C,0.9
same,The level of expressed mRNA in the presence of chemical substance/The level of expressed mRNA in the absence of chemical substance,yeast gene YPL194W,1.0
same,The level of expressed mRNA in the presence of chemical substance/The level of expressed mRNA in the absence of chemical substance,yeast gene YPL223C,1.0
same,The level of expressed mRNA in the presence of chemical substance/The level of expressed mRNA in the absence of chemical substance,yeast gene YPL240C,0.8
same,The level of expressed mRNA in the presence of chemical substance/The level of expressed mRNA in the absence of chemical substance,yeast gene YPR005C,1.0
same,The level of expressed mRNA in the presence of chemical substance/The level of expressed mRNA in the absence of chemical substance,yeast gene YPR026W,0.9
